Results: the supplement of paper PMC5579334

Assays:
[1] = system: HS-Sch-2; test: drug sensitivity score (DSS, CellTiter-Glo viability, 72 h) (DSS (dimensionless)); higher = more sensitive; extreme values may be limits of the assay
Method in brief: (§1)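 MPNST cell lines and primary human Schwann cells (750–1000 cells per well) went into 384-well plates preprinted with each compound at five concentrations in 10-fold steps. Plates were incubated 72 h at 37 °C, 5% CO2. Viability was read as CellTiter-Glo ATP luminescence, scaled between vehicle and positive-control wells, with duplicates averaged where present. Percent inhibition is at the top concentration; drug sensitivity score and relative IC50 (censored at top concentration) come from four-parameter logistic fits.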

[2] = system: HS-PSS; test: as above
Method in brief: as §1

[3] = system: YST-1; test: as above
Method in brief: as §1

[4] = system: HS-Sch-2; test: % inhibition of CellTiter-Glo viability at highest tested concentration (72 h), relative to DMSO and benzethonium chloride controls; higher = more inhibition
Method in brief: as §1

[5] = system: HS-PSS; test: as above
Method in brief: as §1

[6] = system: YST-1; test: as above
Method in brief: as §1

[7] = system: HS-PSS; test: drug sensitivity score (DSS, CellTox-Green cytotoxicity, 72 h) (DSS (dimensionless)); higher = more cytotoxic; extreme values may be limits of the assay
Method in brief: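 MPNST cell lines and primary human Schwann cells were incubated 72 h at 37 °C in 384-well plates holding five 10-fold compound dilutions. CellTox-Green was added before seeding at a final 1:1000 dilution and reported fluorescence from DNA released by disrupted cells. Signals were scaled to vehicle and positive-control wells, and cultures failing plate quality control were dropped. Drug sensitivity score and relative IC50 come from four-parameter logistic fits, with IC50 censored at the top concentration.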

| Structure (SMILES) | drug sensitivity score [1] | drug sensitivity score [2] | drug sensitivity score [3] | % inhibition [4] [%] | % inhibition [5] [%] | % inhibition [6] [%] | drug sensitivity score [7] |
| --- | --- | --- | --- | --- | --- | --- | --- |
| CCc1cc(Nc2nccc(-c3c(-c4ccc(OC)c(C(=O)Nc5c(F)cccc5F)c4)nc4ccccn34)n2)c(OC)cc1N1CCC(N2CCN(S(C)(=O)=O)CC2)CC1 (max concentration tested 10000 nM) | 0.89 | 0 | 16.1 | 7.21 | 4.32 | 52.3 | 0 |
| CNc1nc(-c2ccc3c(N)n[nH]c3c2)cc(N2C[C@@H](C(=O)NC3CCCCC3)CC[C@H]2C)n1 (max concentration tested 10000 nM) | 0.1 | 1.2 | 7.15 | 14.3 | 27.7 | 54 | 0 |
| Cc1c(NC(=O)OC[C@@H]2COCCN2)cn2ncnc(Nc3ccc4c(cnn4Cc4cccc(F)c4)c3)c12 (max concentration tested 10000 nM) | 3.4 | 5.43 | 2.68 | 44.4 | 71.3 | 26.8 | 0.6 |
| Cc1nc(Nc2n[nH]c3c2CN(C(=O)N[C@H](CN(C)C)c2ccccc2)C3(C)C)c2sccc2n1 (max concentration tested 10000 nM) | 15.4 | 27.9 | 24.2 | 101 | 86.4 | 101 | 10.6 |
| O=C(NOCC1CC1)c1ccc(F)c(F)c1Nc1ccc(I)cc1Cl (max concentration tested 10000 nM) | 5.05 | 0.51 | 1.6 | 55.9 | 21.5 | 24.6 | 0 |
| C[C@@H]1CN(CC(=O)Nc2ccc3c(c2)Cc2cccc(-c4cc(=O)cc(N5CCOCC5)o4)c2S3)C[C@H](C)O1 (max concentration tested 25000 nM) | 8.7 | 1.79 | 1.74 | 97.9 | 45.7 | 41.4 | 0 |
| NCC(=O)Nc1ccc(-n2nc(C(F)(F)F)cc2-c2ccc3c(ccc4ccccc43)c2)cc1 (max concentration tested 25000 nM) | 7.03 | 4.86 | 5.55 | 101 | 101 | 101 | 7.95 |
| Cc1ccc2nc(CN(CCN(Cc3nc4ccc(C)cc4[nH]3)Cc3nc4ccc(C)cc4[nH]3)Cc3nc4ccc(C)cc4[nH]3)[nH]c2c1 (max concentration tested 50000 nM) | 7.29 | 7.02 | 6.33 | 80.3 | 74.3 | 67.5 | 0.03 |
| Cc1nn(C)c(COc2ccc(N3CCN(S(=O)(=O)N(C)C)CC3)cc2)c1-c1cccc2c(CCCOc3cccc4ccccc34)c(C(=O)O)n(CCN3CCOCC3)c12 (max concentration tested 50000 nM) | 5.73 | 4.52 | 6.72 | 101 | 90.5 | 101 | 1.47 |
| O=C1c2ccccc2-c2n[nH]c3cccc1c23 (max concentration tested 100000 nM) | 2.29 | 4.26 | 2.42 | 27.4 | 43.2 | 34.2 | 0.2 |
| O=c1cc(N2CCOCC2)oc2c(-c3ccccc3)cccc12 (max concentration tested 100000 nM) | 7.3 | 7.1 | 12 | 72.3 | 69.6 | 96.1 | 2.67 |
| Cn1cc(C[C@@H](N)C(=O)O)c2ccccc21 [1-methyl-D-tryptophan] (max concentration tested 5000 nM) | 0 | 0 | 0 | 2.88 | 6.24 | -5.86 | 0 |
| CCCCC/C=C/C=C1/C(=O)C=C[C@@H]1C/C=C\CCCC(=O)O [15D-PGJ2] (max concentration tested 3000 nM) | 0.58 | 0 | 0 | 16.9 | 3.17 | -5.83 | 0 |
| Cc1ccccc1C(C(=O)NC1CCCCC1)N(C(=O)Cn1ccnc1C)c1cccc(F)c1 (configuration not stated) [AGI-5198] (max concentration tested 10000 nM) | 0.6 | 0.2 | 0 | 4.74 | 11.5 | 1.43 | 0 |
| O=C(Nc1cccc(C(F)(F)F)c1)Nc1cc(S(=O)(=O)NC2CC2)ccc1-c1ccsc1 [AGI-6780] (max concentration tested 10000 nM) | 2.42 | 0.86 | 0.34 | 28.6 | 24.7 | 12.9 | 0 |
| COc1ccc2c(OCc3nnc4ccc(-c5ccccc5)nn34)ccnc2c1 [AMG-208] (max concentration tested 2500 nM) | 0 | 0.98 | 0 | 7.53 | 9.98 | -2.81 | 0 |
| CC(C)[C@@H](CS(=O)(=O)C(C)C)N1C(=O)[C@@](C)(CC(=O)O)C[C@H](c2cccc(Cl)c2)[C@H]1c1ccc(Cl)cc1 [AMG-232] (max concentration tested 1000 nM) | 0 | 0.61 | 8.01 | -6.16 | 22.4 | 96.6 | 0 |
| Cc1csc(-c2nnc(Nc3ccc(Oc4ncccc4-c4ccnc(N)n4)cc3)c3ccccc23)c1 [AMG-900] (max concentration tested 1000 nM) | 1.27 | 0.8 | 9.1 | 30 | 19.6 | 29.8 | 0 |

| Structure (SMILES) | drug sensitivity score [1] | drug sensitivity score [2] | drug sensitivity score [3] | % inhibition [4] [%] | % inhibition [5] [%] | % inhibition [6] [%] | drug sensitivity score [7] |
| --- | --- | --- | --- | --- | --- | --- | --- |
| CC1CCC(n2c3cnccc3c3cnc(Nc4ccc5c(n4)CCN(C(=O)CO)C5)nc32)CC1 (configuration not stated) [AMG-925] (max concentration tested 1000 nM) | 0.03 | 0 | 0.02 | 12.2 | 9.07 | 6.95 | 0 |
| COCC1(CO)C(=O)C2CCN1CC2 (configuration not stated) [APR-246] (max concentration tested 10000 nM) | 0 | 0.39 | 0 | 5 | 13.1 | -11 | 0 |
| CC(C)[C@H](C(=O)Nc1ccc(C(=O)NO)cc1)c1ccccc1 [AR-42] (max concentration tested 10000 nM) | 10.9 | 10 | 17.8 | 101 | 88.1 | 100 | 5 |
| COc1cc(N2CCC(N3CCN(C)CC3)CC2)ccc1Nc1ncnc(Nc2ccccc2S(=O)(=O)C(C)C)n1 [ASP3026] (max concentration tested 10000 nM) | 0 | 0 | 0 | 4.73 | 2.45 | -4.61 | 0 |
| O=C(NC1CCNCC1)c1n[nH]cc1NC(=O)c1c(Cl)cccc1Cl [AT7519] (max concentration tested 10000 nM) | 17.6 | 15.3 | 26 | 99.7 | 73.5 | 98.7 | 1.85 |
| COc1cc(N2CCN(C)CC2)ccc1Nc1nccc(-c2cn(C)c3cnccc23)n1 [AZ191] (max concentration tested 10000 nM) | 5.07 | 5.3 | 3.96 | 95.6 | 80.5 | 76.4 | 1.42 |
| CC(C)Oc1cc(Nc2nc(N[C@@H](C)c3ccc(F)cn3)ncc2Cl)n[nH]1 [AZ-23] (max concentration tested 1000 nM) | 1.29 | 0.29 | 1.96 | 21.1 | 12.4 | 26.5 | 0 |
| N[C@@H]1CCCN(c2c(/C=C3\SC(=O)NC3=O)cccc2-c2ccccc2)C1 [AZD1208] (max concentration tested 10000 nM) | 0 | 0 | 7.54 | -3.67 | -5.48 | 38.7 | 0 |
| CN(C)C(=O)c1ccc(S(=O)(=O)c2ccc(NC(=O)[C@@](C)(O)C(F)(F)F)c(Cl)c2)cc1 [AZD7545] (max concentration tested 10000 nM) | 0.76 | 2.45 | 0 | 17.4 | 57 | 2.29 | 0 |
| N#Cc1ccc2[nH]c(O)c(-c3ccc(CN4CCOCC4)cn3)c2c1 [AZD-1080] (max concentration tested 10000 nM) | 3.74 | 2.89 | 0 | 77.1 | 43.5 | 4.49 | 0 |
| NC1(C(=O)N[C@@H](CCO)c2ccc(Cl)cc2)CCN(c2ncnc3[nH]ccc23)CC1 [AZD-5363] (max concentration tested 10000 nM) | 3.33 | 0.45 | 4.35 | 66.5 | 20.3 | 56.9 | 0 |
| Cc1ncc(-c2ccnc(Nc3ccc(S(C)(=O)=O)cc3)n2)n1C(C)C [AZD-5438] (max concentration tested 10000 nM) | 8.28 | 12.4 | 9.62 | 100 | 72 | 99.2 | 0.3 |
| Cc1cc([C@@H](C)Nc2ccccc2C(=O)O)c2nc(N3CCOCC3)cc(=O)n2c1 [AZD-6482] (max concentration tested 2500 nM) | 0 | 0 | 0.53 | 0.36 | 9.25 | 17.1 | 0 |
| C[C@@H](Nc1cc(F)cc(F)c1)c1cc(C(=O)N(C)C)cc2c(=O)cc(N3CCOCC3)oc12 [AZD-8186] (max concentration tested 1000 nM) | 0 | 0 | 1.06 | -0.99 | -3.47 | 28.9 | 0 |
| Cc1cc(C(=O)NOCCO)c(Nc2ccc(I)cc2F)n(C)c1=O [AZD-8330] (max concentration tested 10000 nM) | 11.6 | 8.85 | 0 | 53.5 | 51.1 | 3.34 | 0 |
| CCN1CCN(Cc2ccc(Nc3ncc(F)c(-c4cc(F)c5nc(C)n(C(C)C)c5c4)n3)nc2)CC1 [Abemaciclib] (max concentration tested 2500 nM) | 1.05 | 1.78 | 6.03 | 31.6 | 22 | 28.3 | 0.89 |
| CN(C)Cc1c(C(=O)NCCOc2ccc(C(=O)NO)cc2)oc2ccccc12 [Abexinostat] (max concentration tested 10000 nM) | 20.5 | 16.5 | 24.9 | 101 | 96.2 | 101 | 7.74 |
| Cn1ncc(Cl)c1-c1cc(C(=O)N[C@H](CN)Cc2cccc(F)c2)sc1Cl [Afuresertib] (max concentration tested 1000 nM) | 0 | 0.07 | 1.39 | 1.85 | 13.3 | 32 | 0 |
